The source of these data is patent US5646184A, “Preparation for external application to the skin and novel benzoic acid derivatives” (Kao Corporation, priority 1993, dated 1997).

Broadly, the inhibition is the relative decrease from the control value, in per cent.

The assay has as its system skin tissue containing sebaceous glands (sebum synthesis). As to the kind of experiment: Percent sebum synthesis inhibition in cultured hamster auricle skin tissue containing sebaceous glands (radioactive sodium acetate incorporation into lipids; method of Hall et al.). Format: cell-based. The conditions noted are these: Mesocricetus auratus, 3 hours culture, average of 6 animals; for inhibition at 8 µM: concentration 8 μM; for inhibition at 10 µM: concentration 10 μM; for inhibition at 100 µM: concentration 100 μM. Here is the method: The following test was conducted to evaluate the sebum synthesis inhibitory action of the benzoic acid derivatives according to the present invention.
Measurement of sebum synthesis was made in accordance with the method of Hall, et al. (cf. Arch. Dermatol. Res., 275:1-7 (1983)). The skin tissue (diameter: 4 mm) containing sebaceous glands, taken from the auricle of a male hamster, was cultured in a Krebes-Ringer's phosphate-buffered solution containing radioactive sodium acetate for 3 hours. The tissue was hydrolyzed and extracted with hexane. The amount of the radioactive labelled lipids in the hexane fraction was measured with a liquid scintillation counter to obtain the amount of the synthesized sebum. The skin tissue obtained from the left auricle of a hamster was tested using a Krebes-Ringer's phosphate-buffered solution, while that obtained from the right one of the same hamster was tested using a Krebes-Ringer's phosphate-buffered solution containing each of the compounds shown in Tables 1 and 2, and a percent synthesis inhibition was obtained according to the following numerical formula.
Percent sebum synthesis inhibition (%) =
100 - (amount of sebum synthesized in the presence of
a test compound)/(amount of sebum synthesized in the
absence of a test compound) × 100

Take `O=C(O)c1cc(OCCC2CCCCC2)ccc1O` [Compound 24, 5-(2-cyclohexylethoxy)-2-hydroxybenzoic acid]: the inhibition at 8 µM was 78%. Turning to `O=C(O)c1ccc(OCCC2CCCCC2)cc1O` [Compound 17, 4-(2-cyclohexylethoxy)-2-hydroxybenzoic acid], the inhibition at 10 µM worked out at 57%. With `CC(C)=CCC/C(C)=C/COc1ccc(C(=O)O)c(O)c1` [Compound 39, 4-{(2E)-3,7-dimethylocta-2,6-dienyloxy}-2-hydroxybenzoic acid], the inhibition at 10 µM was 52% and the inhibition at 100 µM was determined as 93%.

As to `CCCCCCOc1ccc(O)c(C(=O)O)c1` [Compound 25, 5-n-hexyloxy-2-hydroxybenzoic acid], the inhibition at 8 µM is 80%. In the case of `CC(C)=CCC/C(C)=C/COc1ccc(C(=O)NCCO)c(O)c1` [Compound 46, N-(2-hydroxyethyl)-4-{(2E)-3,7-dimethylocta-2,6-dienyloxy}-2-hydroxybenzamide], the inhibition at 10 µM was determined as 28%. On to `CC(=O)Oc1cc(OC/C=C(\C)CCC=C(C)C)ccc1C(=O)O` [Compound 45, 2-acetoxy-4-{(2E)-3,7-dimethylocta-2,6-dienyloxy}benzoic acid], for which the inhibition at 100 µM was 47%. Consider `CCCCC(CC)COc1ccc(O)c(C(=O)O)c1` (centres unmarked) [Compound 22, 5-(2-ethylhexyloxy)-2-hydroxybenzoic acid], for which the inhibition at 8 µM was determined as 84%.

Turning to `CC(C)=CCC/C(C)=C/COc1cccc(C(=O)O)c1O` [Compound 41, 3-{(2E)-3,7-dimethylocta-2,6-dienyloxy}-2-hydroxybenzoic acid], the inhibition at 100 µM was found to be 91%. Regarding `CCCCCCCCCCOc1ccc(C(=O)O)c(O)c1` [Compound 21, 4-n-decyloxy-2-hydroxybenzoic acid], the inhibition at 8 µM was 13%. For the compound `CCCCC(CC)COc1ccc(C(=O)O)c(O)c1` (centres unmarked) [Compound 14, 4-(2-ethylhexyloxy)-2-hydroxybenzoic acid], the inhibition at 10 µM is 60%. Consider `CC(C)=CCC/C(C)=C/CC/C(C)=C/COc1ccc(C(=O)O)c(O)c1` [Compound 43, 2-hydroxy-4-{(2E,6E)-3,7,11-trimethyl-2,6,10-dodecatrienyloxy}benzoic acid], for which the inhibition at 100 µM was 47%. In the case of `CC(CCOc1ccc(C(=O)O)c(O)c1)CC(C)(C)C` (centres unmarked) [Compound 15, 2-hydroxy-4-(3,5,5-trimethylhexyloxy)benzoic acid], the inhibition at 10 µM is 66%. `CCCCCCOc1ccc(C(=O)O)c(O)c1` [Compound 19, 4-n-hexyloxy-2-hydroxybenzoic acid]: the inhibition at 8 µM was 58%. As to `CC(CCOc1ccc(O)c(C(=O)O)c1)CC(C)(C)C` (centres unmarked) [Compound 23, 2-hydroxy-5-(3,5,5-trimethylhexyloxy)benzoic acid], the inhibition at 8 µM came out at 83%. For `CC(C)=CCC/C(C)=C/COc1ccc(O)c(C(=O)O)c1` [Compound 40, 5-{(2E)-3,7-dimethylocta-2,6-dienyloxy}-2-hydroxybenzoic acid], the inhibition at 10 µM came to 72%.

With `CC(C)=CCCC(C)CCOc1ccc(C(=O)O)c(O)c1` (centres unmarked) [Compound 18, 4-(3,7-dimethyl-6-octenyloxy)-2-hydroxybenzoic acid], the inhibition at 10 µM was determined as 45%. As to `CC(=O)Oc1cc(OCC2CCCCC2)ccc1C(=O)O` [Compound 29, 2-acetoxy-4-cyclohexylmethoxybenzoic acid], the inhibition at 8 µM came out at 48%.

As for `CCCCCCCCOc1ccc(C(=O)O)c(O)c1` [Compound 20, 2-hydroxy-4-n-octyloxybenzoic acid], the inhibition at 8 µM stood at 26%. On to `CCCCC(CC)COc1ccc(C(=O)NCCO)c(O)c1` (centres unmarked) [Compound 27, N-(2-Hydroxyethyl)-4-(2-ethylhexyloxy)-2-hydroxybenzamide], for which the inhibition at 8 µM was 15%. For `CCCCC(CC)COc1ccc(C(=O)OC)c(O)c1` (centres unmarked) [Compound 1, methyl 4-(2-ethylhexyloxy)-2-hydroxybenzoate], the inhibition at 100 µM was found to be 32%.

As for `CC(C)=CCC/C(C)=C/COc1cc(O)cc(C(=O)O)c1` [Compound 42, 3-{(2E)-3,7-dimethylocta-2,6-dienyloxy}-5-hydroxybenzoic acid], the inhibition at 100 µM amounted to 70%. For the compound `O=C(O)c1ccc(OCC2CCCCC2)cc1O` [Compound 16, 4-cyclohexylmethoxy-2-hydroxybenzoic acid], the inhibition at 10 µM stood at 44%.
